Article PMC9571628 (Molecules, 2022)

Columns and labels:
[1] = system: UGT1A9; conditions: cited from earlier work
[2] = system: Ugt1a7 mRNA; experiment: qRT-PCR of Ugt1a7 mRNA in liver and intestines of rats after multiple doses; type: in vivo; conditions: DAPA administered to rats for seven consecutive days (1 mg/kg)
Description: The qRT-PCR analysis was used to measure mRNA levels of Ugt1a7 in the liver and intestines of rats. Total RNA was isolated from frozen liver and intestine samples using the TRNzol Universal as per the manufacturer’s instructions. A Bio Tek Epoch (Bio Tek Instruments, Inc., Winooski, VT, USA) was used to quantify the concentration and purity of the total RNA based on the ratio of the absorbance between 260 and 280 nm. RNA samples of 1 μg of were converted to complementary (cDNA) using the FastKing RT Kit. The real-time PCR assays were performed using a two-step amplification method according to the manufacturer’s recommendations in a SLAN-96S Real-Time PCR system (Shanghai Hongshi Medical Technology Co., Ltd. Shanghai, China). The PCR cycling conditions were as follows: 95 °C for 15 min, followed by 40 cycles of 95 °C for 10 s and 60 °C for 32 s. The sequences of primers are listed in Table 6. β-actin was used as an internal control.

[3] = cited from earlier work
[4] = Pharmacokinetic interaction study between SOR and DAPA in rats (oral gavage, plasma by UPLC-MS/MS); conditions: for AUC(0-t) / AUC(0-inf) / CL/F / Cmax / MRT last / MRT inf / Tmax / Vd/F / half-life: male, Sprague-Dawley, rat, in vivo, po, 1 mg/kg, n = 6; for AUC(0-t): AUC0-t; for AUC(0-inf): AUC0–∞; for CL/F: CLz/F; for MRT last: MRT0-t; for MRT inf: MRT0–∞; for Vd/F: Vz/F; for half-life: t1/2z;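 as to all read-outs here: parameters derived by non-compartmental analysis of plasma concentration–time data, with analyte levels measured by UPLC-MS/MS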
Description: Analytes were quantified using Ultra-Performance Liquid Chromatography-Tandem Mass Spectrometry (UPLC-MS/MS) which consisted of an LC-30A ultra-performance liquid chromatography (Shimadzu, Kyoto, Japan) and Sciex Triple Quad 5500 tandem triple quadrupole mass spectrometer (AB Sciex, Framingham, MA, USA). Chromatographic separation was performed using an XSelect HSS T3 column (2.1 mm × 100 mm, 2.5 μm, Waters, Milford, MA, USA) at 40 °C by gradient elution. The mobile phase consisted of water with 0.1% formic acid and 5 mM ammonium acetate (phase A) and acetonitrile (phase B), and the gradient elution procedure was as follows: 0–0.5 min, 60–90% B; 0.5–3 min, 90% B; 3–3.1 min, 90–60% B; and 3.1–4 min, 60% B. The injection volume was 5 μL.
A volume of 25 µL plasma samples, 2.5 µL IS mixed working solution, and 150 μL methyl tertbutyl ether was added, then vortex-mixed for 1 min. The mixture was centrifuged at 12,000× g for 10 min. The organic phase was transferred to a new centrifuged tube and evaporated to dryness under a stream of nitrogen at room temperature. The dried samples were redissolved with 100 μL of 50% acetonitrile and briefly vortexed for 1 min, then 5 μL was injected into the UPLC-MS/MS for analysis.
Adult male Sprague-Dawley (SD) rats weighing 230 ± 30 g were provided by Beijing Weitong Lihua Experimental Animal Technology Co., Ltd. (Beijing, China). The license number is SCXK (Beijing) 2016–0011. All experimental procedures for this study were reviewed and approved by the Animal Ethics Committee of Hebei General Hospital (Shijiazhuang, China) (No. 2022072). The rats were adapted to the standard laboratory conditions (12 h dark–light cycle, temperature at approximately 23 ± 2 °C, relative humidity of 50 ± 10%) for a week. All the rats were given access to water freely, while the diet was prohibited for 12 h before administration.
Twenty-four healthy rats were randomly divided into four groups (n = 6 in each group). […] Blood samples were then centrifuged at 3500× g for 10 min at 4 °C, and the supernatant was transferred to another centrifuged tube, then stored in a −80 °C freezer until analysis.
DAS 2.1.1 Software (Mathematical Pharmacology Professional Committee of China, Shanghai, China) was used to calculate pharmacokinetic parameters with non-compartmental analysis. The pharmacokinetic analysis included AUC (area under the concentration–time curve), Cmax (maximum plasma concentration), Tmax (time to maximum plasma concentration), t1/2 (time required to eliminate half of plasma drug concentration), CLz/F (clearance of drug plasma volume per time unit), Vz/F (apparent volume of distribution), and MRT (mean residence time). SPSS 25.0 statistical software (SPSS Inc., Chicago, IL, USA) was used to statistically analyze the above-mentioned pharmacokinetic parameters. Statistical comparisons of the experimental and control groups were conducted using a nonparametric rank-sum test or t-test, depending on the data type; p < 0.05 was considered statistically significant.

[5] = Stability of QC samples in rat plasma under different storage and processing conditions; type: physicochemical; conditions: for Accuracy (RE%) / Mean ± SD concentration found: rat plasma, n = 6
Description: The stability of QC samples in rat plasma was tested in six replicates at three concentration levels exposed to different storage and processing conditions: autosampler for 6 h after processing, room temperature for 4 h, −80 °C for 30 days, three freeze–thaw cycles (−80 °C to room temperature).

[6] = system: UGT1A1; conditions: cited from earlier work
[7] = system: CYP450; conditions: cited from earlier work
[8] = co-administered with multiple doses of SOR vs control group (DAPA alone)
[9] = DAPA 1 mg/kg oral with multiple-doses SOR (100 mg/kg, seven days)
[10] = Autosampler for 6 h, nominal 15 ng/mL
[11] = Autosampler for 6 h, nominal 800 ng/mL
[12] = Autosampler for 6 h, nominal 1500 ng/mL
[13] = Freeze–thaw stability for three times, nominal 15 ng/mL
[14] = Freeze–thaw stability for three times, nominal 800 ng/mL
[15] = Freeze–thaw stability for three times, nominal 1500 ng/mL
[16] = Room temperature for 4 h, nominal 15 ng/mL
[17] = Room temperature for 4 h, nominal 800 ng/mL
[18] = Room temperature for 4 h, nominal 1500 ng/mL
[19] = −80 °C for 30 days, nominal 15 ng/mL
[20] = −80 °C for 30 days, nominal 800 ng/mL
[21] = −80 °C for 30 days, nominal 1500 ng/mL

Structure (SMILES): CCOc1ccc(Cc2cc([C@@H]3O[C@H](CO)[C@@H](O)[C@H](O)[C@H]3O)ccc2Cl)cc1 [DAPA, Dapagliflozin]
- UGT1A9 inhibitor strength [1]: moderate
- effect on the expression of Ugt1a7 in the intestines ([2]; intestines): no significant effect
- inhibition of mRNA expression of Ugt1a7 in the liver ([2]; liver): 59.31%
- increase of exposure of DAPA ([3]; with mefenamic acid (a strong UGT1A9 inhibitor)): 51%
- reduction of exposure of DAPA ([3]; with rifampin (a pleiotropic enzyme inducer)): 22%
- decrease of CLz/F of DAPA [4, 8]: 40%
- elevation of MRT0–t of DAPA [4, 8]: 1.48 fold
- elevation of MRT0–∞ of DAPA [4, 8]: 1.80 fold
- elevation of Tmax of DAPA [4, 8]: 1.43 fold
- increase of AUC0–t of DAPA [4, 8]: 1.66 fold
- increase of AUC0–∞ of DAPA [4, 8]: 1.80 fold
- AUC(0-t) [4, 9]: 8570 ± 2860 ng·h/mL
- AUC(0-t) ([4]; DAPA 1 mg/kg oral, alone): 5160 ± 1030 ng·h/mL
- AUC(0-inf) [4, 9]: 9300 ± 4260 ng·h/mL
- AUC(0-inf) ([4]; DAPA 1 mg/kg oral, alone): 5180 ± 1050 ng·h/mL
- CL/F [4, 9]: 2 mL/min/kg
- CL/F ([4]; DAPA 1 mg/kg oral, alone): 3.33 mL/min/kg
- Cmax [4, 9]: 871 ± 167 ng/mL
- Cmax ([4]; DAPA 1 mg/kg oral, alone): 846 ± 76.4 ng/mL
- MRT last [4, 9]: 9.01 ± 1.22 h
- MRT last ([4]; DAPA 1 mg/kg oral, alone): 6.1 ± 0.96 h
- MRT inf [4, 9]: 11.2 ± 4.86 h
- MRT inf ([4]; DAPA 1 mg/kg oral, alone): 6.25 ± 1.07 h
- Tmax [4, 9]: 0.83 ± 0.41 h
- Tmax ([4]; DAPA 1 mg/kg oral, alone): 0.58 ± 0.2 h
- Vd/F [4, 9]: 1.12 ± 0.1 L/kg
- Vd/F ([4]; DAPA 1 mg/kg oral, alone): 1.27 ± 0.19 L/kg
- half-life [4, 9]: 7.95 ± 4.03 h
- half-life ([4]; DAPA 1 mg/kg oral, alone): 4.51 ± 0.67 h
- Accuracy (RE%) [5, 10]: −0.4%
- Mean ± SD concentration found [5, 10]: 14.93 ± 0.83 ng/mL
- Accuracy (RE%) [5, 11]: 3.8%
- Mean ± SD concentration found [5, 11]: 830.00 ± 15.05 ng/mL
- Accuracy (RE%) [5, 12]: 9.6%
- Mean ± SD concentration found [5, 12]: 1643.33 ± 32.66 ng/mL
- Accuracy (RE%) [5, 13]: 1.2%
- Mean ± SD concentration found [5, 13]: 15.18 ± 0.87 ng/mL
- Accuracy (RE%) [5, 14]: −3.8%
- Mean ± SD concentration found [5, 14]: 769.83 ± 44.56 ng/mL
- Accuracy (RE%) [5, 15]: −7.4%
- Mean ± SD concentration found [5, 15]: 1388.33 ± 54.19 ng/mL
- Accuracy (RE%) [5, 16]: −0.7%
- Mean ± SD concentration found [5, 16]: 14.90 ± 0.49 ng/mL
- Accuracy (RE%) [5, 17]: 11.1%
- Mean ± SD concentration found [5, 17]: 889.00 ± 15.43 ng/mL
- Accuracy (RE%) [5, 18]: 10.2%
- Mean ± SD concentration found [5, 18]: 1653.33 ± 21.60 ng/mL
- stability in rat plasma ([5]; autosampler for 6 h, room temperature for 4 h, −80 °C for 30 days, three cycles of freezing and thawing (−80 °C to room temperature)): stable
- Accuracy (RE%) [5, 19]: 2.9%
- Mean ± SD concentration found [5, 19]: 15.43 ± 1.07 ng/mL
- Accuracy (RE%) [5, 20]: 2.8%
- Mean ± SD concentration found [5, 20]: 822.17 ± 21.66 ng/mL
- Accuracy (RE%) [5, 21]: −1.1%
- Mean ± SD concentration found [5, 21]: 1483.33 ± 19.66 ng/mL
- UGT1A1 inhibitor strength [6]: moderate
- share metabolized by CYP450 [7]: < 10%
